Measurements from the supplement of paper PMC10307832.

Tests used:
Experiment in all cases: relative viability (nuclei count vs DMSO), 5 days (fraction); higher = more cells survive
[1] = test system: ABC-1
Summary of the method: (§1)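 Relative viability is defined as nuclei in treated wells over nuclei in vehicle wells. Duplicate plates were run and medians reported. Lung cancer cell lines in 1536-well plates were dosed by pin tool one day after seeding, with one drug or with a fixed anchor-drug dose plus five library-drug doses (not always all listed) in √10 steps, and nuclei were counted after 5 days.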

[2] = test system: COR-L23
Summary of the method: as §1

[3] = test system: ChaGo-K-1
Summary of the method: as §1

[4] = test system: EMC-BAC-2
Summary of the method: as §1

[5] = test system: HARA
Summary of the method: as §1

[6] = test system: HCC-15
Summary of the method: as §1

[7] = test system: HCC-366
Summary of the method: as §1

[8] = test system: HCC-78
Summary of the method: as §1

[9] = test system: HOP-62
Summary of the method: as §1

[10] = test system: LC-2-ad
Summary of the method: as §1

[11] = test system: NCI-H1395
Summary of the method: as §1

[12] = test system: NCI-H1793
Summary of the method: as §1

[13] = test system: NCI-H1944
Summary of the method: as §1

[14] = test system: NCI-H1993
Summary of the method: as §1

[15] = test system: NCI-H2023
Summary of the method: as §1

[16] = test system: NCI-H2126
Summary of the method: as §1

[17] = test system: NCI-H2228
Summary of the method: as §1

[18] = test system: NCI-H23
Summary of the method: as §1

[19] = test system: NCI-H2405
Summary of the method: as §1

[20] = test system: NCI-H358
Summary of the method: as §1

[21] = test system: NCI-H838
Summary of the method: as §1

[22] = test system: SK-LU-1
Summary of the method: as §1

Q: CCN(CC)CCCCNc1ncc2cc(-c3cc(OC)cc(OC)c3)c(NC(=O)NC(C)(C)C)nc2n1 + Cc1nc(Nc2ncc(C(=O)Nc3c(C)cccc3Cl)s2)cc(N2CCN(CCO)CC2)n1 [Dasatinib] (partner 0.075 µM) was tested. Which relative viability ([1]; first compound 0.01 µM) did it give?
A: 0.617

Q: And the relative viability ([1]; first compound 0.03162 µM)?
A: 0.541

Q: What about the relative viability ([1]; first compound 0.1 µM) of the same molecule?
A: 0.618

Q: And the relative viability ([1]; first compound 0.3162 µM)?
A: 0.548

Q: What about the relative viability ([1]; first compound 1 µM) of the same molecule?
A: 0.535

Q: And the relative viability ([2]; first compound 0.01 µM)?
A: 0.527

Q: What about the relative viability ([2]; first compound 0.03162 µM) of the same molecule?
A: 0.549

Q: And the relative viability ([2]; first compound 0.1 µM)?
A: 0.546

Q: What about the relative viability ([2]; first compound 0.3162 µM) of the same molecule?
A: 0.566

Q: What about the relative viability ([2]; first compound 1 µM) of the same molecule?
A: 0.608

Q: What about the relative viability ([3]; first compound 0.01 µM) of the same molecule?
A: 0.584

Q: And the relative viability ([3]; first compound 0.03162 µM)?
A: 0.602

Q: And the relative viability ([3]; first compound 0.1 µM)?
A: 0.655

Q: And the relative viability ([3]; first compound 0.3162 µM)?
A: 0.643

Q: And the relative viability ([3]; first compound 1 µM)?
A: 0.514

Q: And the relative viability ([4]; first compound 0.01 µM)?
A: 0.189

Q: And the relative viability ([4]; first compound 0.03162 µM)?
A: 0.359

Q: And the relative viability ([4]; first compound 0.1 µM)?
A: 0.304

Q: And the relative viability ([4]; first compound 0.3162 µM)?
A: 0.348

Q: What about the relative viability ([4]; first compound 1 µM) of the same molecule?
A: 0.3

Q: And the relative viability ([5]; first compound 0.01 µM)?
A: 0.284

Q: And the relative viability ([5]; first compound 0.03162 µM)?
A: 0.246

Q: And the relative viability ([5]; first compound 0.1 µM)?
A: 0.312

Q: And the relative viability ([5]; first compound 0.3162 µM)?
A: 0.142

Q: And the relative viability ([5]; first compound 1 µM)?
A: 0.237

Q: What about the relative viability ([6]; first compound 0.01 µM) of the same molecule?
A: 0.613

Q: What about the relative viability ([6]; first compound 0.03162 µM) of the same molecule?
A: 0.7

Q: What about the relative viability ([6]; first compound 0.1 µM) of the same molecule?
A: 0.681

Q: And the relative viability ([6]; first compound 0.3162 µM)?
A: 0.748

Q: What about the relative viability ([6]; first compound 1 µM) of the same molecule?
A: 0.554

Q: And the relative viability ([7]; first compound 0.01 µM)?
A: 0.601

Q: And the relative viability ([7]; first compound 0.03162 µM)?
A: 0.686

Q: What about the relative viability ([7]; first compound 0.1 µM) of the same molecule?
A: 0.942

Q: And the relative viability ([7]; first compound 0.3162 µM)?
A: 0.659

Q: And the relative viability ([7]; first compound 1 µM)?
A: 0.613

Q: And the relative viability ([8]; first compound 0.01 µM)?
A: 0.46

Q: And the relative viability ([8]; first compound 0.03162 µM)?
A: 0.361

Q: What about the relative viability ([8]; first compound 0.1 µM) of the same molecule?
A: 0.493

Q: And the relative viability ([8]; first compound 0.3162 µM)?
A: 0.421

Q: What about the relative viability ([8]; first compound 1 µM) of the same molecule?
A: 0.364

Q: And the relative viability ([9]; first compound 0.01 µM)?
A: 0.67

Q: And the relative viability ([9]; first compound 0.03162 µM)?
A: 0.726

Q: What about the relative viability ([9]; first compound 0.1 µM) of the same molecule?
A: 0.828

Q: What about the relative viability ([9]; first compound 0.3162 µM) of the same molecule?
A: 0.707

Q: And the relative viability ([9]; first compound 1 µM)?
A: 0.417

Q: What about the relative viability ([10]; first compound 0.01 µM) of the same molecule?
A: 0.575

Q: What about the relative viability ([10]; first compound 0.03162 µM) of the same molecule?
A: 0.679

Q: What about the relative viability ([10]; first compound 0.1 µM) of the same molecule?
A: 0.73

Q: And the relative viability ([10]; first compound 0.3162 µM)?
A: 0.664

Q: And the relative viability ([10]; first compound 1 µM)?
A: 0.344

Q: What about the relative viability ([11]; first compound 0.01 µM) of the same molecule?
A: 0.421

Q: And the relative viability ([11]; first compound 0.03162 µM)?
A: 0.422

Q: And the relative viability ([11]; first compound 0.1 µM)?
A: 0.753

Q: And the relative viability ([11]; first compound 0.3162 µM)?
A: 0.386

Q: And the relative viability ([11]; first compound 1 µM)?
A: 0.411

Q: And the relative viability ([12]; first compound 0.01 µM)?
A: 0.369

Q: And the relative viability ([12]; first compound 0.03162 µM)?
A: 0.312

Q: And the relative viability ([12]; first compound 0.1 µM)?
A: 0.372

Q: What about the relative viability ([12]; first compound 0.3162 µM) of the same molecule?
A: 0.283

Q: What about the relative viability ([12]; first compound 1 µM) of the same molecule?
A: 0.271

Q: And the relative viability ([13]; first compound 0.01 µM)?
A: 0.197

Q: And the relative viability ([13]; first compound 0.03162 µM)?
A: 0.212

Q: What about the relative viability ([13]; first compound 0.1 µM) of the same molecule?
A: 0.22

Q: And the relative viability ([13]; first compound 0.3162 µM)?
A: 0.236

Q: What about the relative viability ([13]; first compound 1 µM) of the same molecule?
A: 0.196

Q: And the relative viability ([14]; first compound 0.01 µM)?
A: 0.31

Q: What about the relative viability ([14]; first compound 0.03162 µM) of the same molecule?
A: 0.604

Q: What about the relative viability ([14]; first compound 0.1 µM) of the same molecule?
A: 0.611

Q: What about the relative viability ([14]; first compound 0.3162 µM) of the same molecule?
A: 0.604

Q: What about the relative viability ([14]; first compound 1 µM) of the same molecule?
A: 0.536

Q: And the relative viability ([15]; first compound 0.01 µM)?
A: 0.548

Q: What about the relative viability ([15]; first compound 0.03162 µM) of the same molecule?
A: 0.675

Q: What about the relative viability ([15]; first compound 0.1 µM) of the same molecule?
A: 0.657

Q: And the relative viability ([15]; first compound 0.3162 µM)?
A: 0.571

Q: What about the relative viability ([15]; first compound 1 µM) of the same molecule?
A: 0.493

Q: What about the relative viability ([16]; first compound 0.01 µM) of the same molecule?
A: 0.586

Q: And the relative viability ([16]; first compound 0.03162 µM)?
A: 0.603

Q: What about the relative viability ([16]; first compound 0.1 µM) of the same molecule?
A: 0.648

Q: What about the relative viability ([16]; first compound 0.3162 µM) of the same molecule?
A: 0.77

Q: And the relative viability ([16]; first compound 1 µM)?
A: 0.53

Q: What about the relative viability ([17]; first compound 0.01 µM) of the same molecule?
A: 0.586

Q: And the relative viability ([17]; first compound 0.03162 µM)?
A: 0.589

Q: What about the relative viability ([17]; first compound 0.1 µM) of the same molecule?
A: 0.793

Q: And the relative viability ([17]; first compound 0.3162 µM)?
A: 0.536

Q: What about the relative viability ([17]; first compound 1 µM) of the same molecule?
A: 0.431

Q: What about the relative viability ([18]; first compound 0.01 µM) of the same molecule?
A: 0.795

Q: What about the relative viability ([18]; first compound 0.03162 µM) of the same molecule?
A: 1

Q: And the relative viability ([18]; first compound 0.1 µM)?
A: 0.904

Q: And the relative viability ([18]; first compound 0.3162 µM)?
A: 0.925

Q: What about the relative viability ([18]; first compound 1 µM) of the same molecule?
A: 0.878

Q: What about the relative viability ([19]; first compound 0.01 µM) of the same molecule?
A: 0.193

Q: And the relative viability ([19]; first compound 0.03162 µM)?
A: 0.202

Q: And the relative viability ([19]; first compound 0.1 µM)?
A: 0.466

Q: What about the relative viability ([19]; first compound 0.3162 µM) of the same molecule?
A: 0.205

Q: And the relative viability ([19]; first compound 1 µM)?
A: 0.186

Q: What about the relative viability ([20]; first compound 0.01 µM) of the same molecule?
A: 0.169

Q: What about the relative viability ([20]; first compound 0.03162 µM) of the same molecule?
A: 0.127

Q: And the relative viability ([20]; first compound 0.1 µM)?
A: 0.157

Q: And the relative viability ([20]; first compound 0.3162 µM)?
A: 0.147

Q: And the relative viability ([20]; first compound 1 µM)?
A: 0.198

Q: What about the relative viability ([21]; first compound 0.01 µM) of the same molecule?
A: 0.259

Q: And the relative viability ([21]; first compound 0.03162 µM)?
A: 0.305

Q: And the relative viability ([21]; first compound 0.1 µM)?
A: 0.307

Q: What about the relative viability ([21]; first compound 0.3162 µM) of the same molecule?
A: 0.305

Q: And the relative viability ([21]; first compound 1 µM)?
A: 0.246

Q: What about the relative viability ([22]; first compound 0.01 µM) of the same molecule?
A: 0.158

Q: And the relative viability ([22]; first compound 0.03162 µM)?
A: 0.163

Q: And the relative viability ([22]; first compound 0.1 µM)?
A: 0.177

Q: What about the relative viability ([22]; first compound 0.3162 µM) of the same molecule?
A: 0.194

Q: And the relative viability ([22]; first compound 1 µM)?
A: 0.13
